Experimental data reported in article PMC9797307, “Measurement of Pharmacokinetics and Tissue Distribution of Four Compounds from Nauclea officinalis in Rat Plasma and Tissues through HPLC-MS/MS” (Journal of Analytical Methods in Chemistry, 2022).

Columns and labels:
[1] = Tissue distribution in rats after oral administration of Nauclea officinalis extracts (HPLC-MS/MS); assay type: in vivo
Method: (§1) Chromatographic analysis was performed on the LC-20ADXR System (Shimadzu, Japan). The Phenomenex Kinete EVO C18 100 Å (50 mm × 2.1 mm, 5 μm) column was used as the analytical column maintained at 40°C with (A) 0.1% formic acid aqueous solution and (B) acetonitrile as the mobile phase. […] The flow rate was 0.8 mL/min, and the injection volume was 5 μL.
(§2) Mass spectrometric detection was performed on an AB-SCIEX API 4000 mass spectrometer (AB SCIEX, Singapore) with ESI in negative ion multiple reaction monitoring (MRM) mode. The optimized instrument parameters were as follows: nebulizer gas: 50 psi, heated by N2 gas: 55 psi, ion spray voltage: −4500 V and temperature: 550°C; nebulizer, blowback gas, and collision gas were nitrogen; declustering potential (DP), collision energy (CE), and collision cell exit potential (CXP) of the four analytes and chloramphenicol (IS) are shown in Table 1.
Thirty rats were divided into five groups (n = 6) at random, which were orally administered Nauclea officinalis extracts at a dose of 2 g/kg for tissue distribution conducted at 0.5, 1, 2, 4, and 6 h. During the collection, the heart, liver, spleen, lung, kidney, stomach, small intestine, and brain were rinsed with physiological saline solution to get rid of the blood or content and blotted on filter paper and then weighed. Each tissue sample was accurately weighed and homogenized by using physiological saline at four times the tissue weight (w/v). The homogenates were stored at −80°C until analysis.
Drugs enter tissues that receive high blood flow first, followed by those that receive low blood flow.

[2] = Pharmacokinetic study in rat plasma after oral administration of Nauclea officinalis extracts (HPLC-MS/MS); assay type: in vivo, Male Sprague–Dawley (SD) rats; conditions: oral Nauclea officinalis extracts 2 g/kg, noncompartment model, mean ± SD; for Cmax / MRT last / Vd/F / half-life: male, Sprague-Dawley; for Cmax: n = 6, read-out: C max (maximum plasma concentration); for MRT last: n = 6, read-out: MRT (0 − t); for Vd/F: n = 6, read-out: Vz/F (apparent distribution volume); for half-life: n = 6, read-out: t1/2 (elimination half-life) (converted)
Method: as §1, §2
Six male SD rats were tested in pharmacokinetics studies. […] The blood samples (approximately 0.5 mL) were collected via the venous plexus of the eye socket at 0.083, 0.25, 0.5, 1, 2, 4, 6, 8, […], 12, and 24 h under anesthesia. Next, each sample was immediately centrifuged at 4000 rpm for 10 min to acquire the plasma. The plasma was transferred to new tubes and stored at −80°C until further use. The pharmacokinetics parameters of the four compounds in rat plasma were calculated by the noncompartment model using Drug and Statistics (DAS 3.3.0) software (Beijing, China).
Pharmacokinetic parameters of four compounds were calculated by noncompartmental model using DAS 3.3.0 software.

| Peak concentration in most tissues versus plasma ([1]; after oral extract 2 g/kg) | Cmax [2] [ng/mL] | MRT last [2] [h] | Vd/F [2] [L/kg] | half-life [2] [h] | AUC (0 − ∞) ([2]; n = 6) [μg/L∗h] | CL (clearance rate) ([2]; n = 6) [mL/min/kg] | CL (clearance rate) ([2]; n = 6, listed as chlorogenic acid) [mL/min/kg] | Detection in studied tissues ([1]; heart, liver, spleen, lung, kidney, small intestine, stomach, brain, 0.5-6 h after oral extract 2 g/kg) | AUC (0 − t) ([2]; n = 6) [μg/L∗h] | T max (time to Cmax) ([2]; n = 6) [h] | Structure (SMILES) | Abundance in small intestine versus stomach ([1]; after oral extract 2 g/kg) |
| --- | --- | --- | --- | --- | --- | --- | --- | --- | --- | --- | --- | --- |
| much lower than in plasma | 242 ± 84.7 | 5.33 ± 0.65 | 916 ± 452 | 10.6 ± 6.21 | 554.37 ± 166.14 | 1049 ± 266.7 | 1049 ± 266.6 |  |  |  | O=C(/C=C/c1ccc(O)c(O)c1)O[C@@H]1C[C@](O)(C(=O)O)C[C@@H](O)[C@H]1O [Chlorogenic acid] |  |
|  | 1010 ± 369 | 4.76 ± 1.57 | 0.966 ± 0.359 | 4.59 ± 1.65 | 5405.02 ± 416.99 | 2.5 ± 0.17 |  | could be detected in all studied tissue | 5281.36 ± 440.02 | 1.66 | C/C=C1/COC(=O)[C@H]2C(=O)N3CCc4c([nH]c5ccccc45)[C@@H]3C[C@@H]12 [Naucleactonin C] | more abundant in the small intestine than in the stomach |
